Series [1] has as its system SOD1^G93A mice. As to conditions: Clopidogrel 1 mg/kg for 30 days from 90 days old, versus vehicle (FIG. 3C). Here is the method:
(§1) We treated SOD1^G93A mice with either vehicle or Clopidogrel (1 mg/kg) for 30 days starting at symptom onset (90 days old). […] The EDL and TA are hindlimb muscles mostly composed of fast-twitch fibers that play similar function in leg movement. These muscles are adjacent to each other and are affected early in ALS38.

The test system of series [2] is SOD1^G93A mice. As to conditions: SOD1^G93A mice examined at 15 and 30 days after treatment starting at 90 days of age, compared to vehicle (FIG. 5B).
From the text: NeuroScore involved observing the ability of mice to control the position and mobility of both hindlimbs independently of each other. In this 0-4 point scoring system, 0 represents normal control and 4 represents complete loss of the ability to command hindlimb movement (FIG. 5A).
We also assessed disease progression in mice using the neurological scoring system (NeuroScore) which is used to determine disease stage in SOD1^G93A mice. NeuroScore involved observing the ability of mice to control the position and mobility of both hindlimbs independently of each other. In this 0-4 point scoring system, 0 represents normal control and 4 represents complete loss of the ability to command hindlimb movement (for example, see FIG. 5A).
Another series concerns mouse model of ALS. The source says: FIGS. 11A-11F provide a summary of Clopidogrel treatment on mouse model of ALS. FIG. 11A (control) and FIG. 11B provide images showing neuromuscular junctions (NMJs) treated with vehicle (control) and Clopidogrel. Blue depicts axons and Magenta muscle region in contact with motor axons.
FIGS. 11A-11F provide a summary of Clopidogrel treatment on a mouse model of ALS. FIG. 11A (control, left) and FIG. 11B (Clopidogrel, right) provide images showing neuromuscular junctions (NMJs) treated with vehicle (control, left) and Clopidogrel (right). Blue (or grey in upper panels) depicts axons and Magenta (grey in lower panels) muscle region in contact with motor axons.

The conditions of series [3]: general statement, no test described; cited from earlier work.
Series [4] deals with SOD1^G93A mice. As to conditions: P120 SOD1^G93A mice. The text has this: In FIGS. 4A-4H, DigiGait™ was used for gate analysis of P120 SOD1^G93A mice treated with Vehicle or the P2Y12 antagonist Clopidogrel. […] Scale bar=10 μm.
To this end, before sacrificing mice for histological analysis, we examined the gait patterns of SOD1^G93A mice treated with Clopidogrel and vehicle using the DigiGait™ system.

The test system of another series is mice. As to conditions: general statement before a planned dose pilot study; cited from earlier work.
The subject of series [5] is SOD1^G93A mice. As to conditions: EDL of P120 SOD1^G93A mice, versus vehicle, *p<0.05, n=7-8. Here is the method: as §1
Discussion of Research Design (current) and Experimental Methods: Currently Disclosed Aim 1A: Identify the optimal Clopidogrel dose to protect NMJs from ALS.

Where two headings read alike, the source gives them in different places.

For the compound `COC(=O)[C@H](c1ccccc1Cl)N1CCc2sccc2C1` [Clopidogrel], the values for the TA muscle mass entry with SOD1^G93A mice [1] and in the series on SOD1^G93A mice [1] (listed as clopidogrel) were “significantly preserved the overall mass of the tibialis anterior (TA) muscle” and “higher TA muscle mass”, respectively. Further, the “disease progression by NeuroScore (0-4 point scoring system)” value in the series on SOD1^G93A mice [2] is listed as “the disease progressed slower”. Also, the “intactness of muscle regions in contact with motor axons (NMJ)” value in the series on mouse model of ALS (versus vehicle control (FIG. 11C, 11E)) is recorded as “more intact”. Moreover, the “number of denervated NMJs” value with mouse model of ALS (versus vehicle control (FIG. 11D, 11F)) is listed as “reduces the number of denervated NMJs”. Besides, the “crossing of the blood-brain-barrier (BBB)” value in series [3] was “does not cross the blood-brain-barrier”. The “stride frequency (DigiGait)” value with SOD1^G93A mice [4] (compared to vehicle, n=3-5 (FIG. 4A, 4B)) was “increases stride frequency”. In the series with SOD1^G93A mice [4] (compared to vehicle, n=3-5 (FIG. 4C, 4D)), the “swing duration (DigiGait)” value is “reduces swing duration”. The “percent brake of stride (DigiGait)” value with SOD1^G93A mice [4] (forelimb and hindlimb, versus vehicle (FIG. 4G, 4H)) is “increased”. Besides, in the series on SOD1^G93A mice [4] (versus vehicle (FIG. 4E, 4F)), the “brake time (DigiGait)” value was “increased the brake time”. In the series with mice, the “side effects in mice” value is “lethargy, weight loss and internal bleeding”. For the same compound, the “fully denervated NMJs (analysis of NMJ innervation, FIG. 3B)” value in the series with SOD1^G93A mice [5] is “fewer fully denervated NMJs”.

The values above are taken from patent US20250281466A1, “USE OF CLOPIDOGREL OR COMBINATIONS THEREOF TO TREAT AMYOTROPHIC LATERAL SCLEROSIS, DAMAGES CAUSED BY THE NORMAL AGING PROCESS, NERVE INJURIES, MUSCULAR DYSTROPHY, STRENUOUS PHYSICAL ACTIVITIES AND OTHER CONDITIONS THAT AFFECT SYNAPSES AS WELL AS SKELETAL MUSCLES” (Brown University, priority 2024, published 2025).
